Test results from patent US9932637B2, “Genetic polymorphisms associated with cardiovascular disorders and drug response, methods of detection and uses thereof” (CELERA CORPORATION, priority 2003, dated 2018).

Test system: patients with prior myocardial infarction (CARE study)
Assay: CARE: association of SNPs with pravastatin treatment in cardiovascular events prevention (logistic regression, odds ratio pravastatin vs placebo by genotype; Table 8)
Type: in vivo, human
Conditions: for Definite Nonfatal MI, n/total (%) / Fatal/Nonfatal MI (def & prob), n/total (%) / MI (Fatal/Nonfatal), n/total (%) / Nonfatal MI (def & prob), n/total (%): BCL2A1 hCV7509650, All Patients
Excerpt: In order to identify genetic markers associated with acute coronary events (e.g. MI, stroke, unstable angina, congestive heart failure, etc.) or response to statin treatment for the prevention of coronary events, samples from the Cholesterol and Recurrent Events (CARE) study (a randomized multicentral double-blinded trial on secondary prevention of acute coronary events with pravastatin) (Sacks et al., 1991, Am. J. Cardiol. 68: 1436-1446) were genotyped. A well-documented myocardial infarction (MI) was one of the enrollment criteria for entry into the CARE study. Patients were enrolled in the CARE trial from 80 participating study centers. […] Patients were randomized to receive either 40 mg of pravastatin once daily or a matching placebo. The primary endpoint of the trial was death from coronary heart disease and the median duration of follow-up was 5.0 years (range, 4.0 to 6.2 years). […] Secondary endpoints of other related cardiovascular or metabolic disease events, and changes in clinical variables were also recorded in pravastatin-treated and placebo groups. All individuals included in the study had signed a written informed consent form and the study protocol was approved by the respective Institutional Review Boards (IRBs).
For genotyping SNPs in CARE patient samples, DNA was extracted from blood samples using conventional DNA extraction methods such as the QIA-amp kit from Qiagen. Genotypes were obtained on an ABI PRISM® 7900HT Sequence Detection PCR system (Applied Biosystems, Foster City, Calif.) by kinetic allele-specific PCR, similar to the method described by Germer et al. (Germer S., Holland M. J., Higuchi R. 2000, Genome Res. 10: 258-266).
Statistical analysis for association of SNPs with pravastatin treatment in cardiovascular events prevention (Table 8) was carried out using an overall logistic regression model that included an intercept, a parameter for the effect of a genotype containing two rare alleles versus a genotype containing no rare alleles, a parameter for the effect of a genotype containing one rare allele versus a genotype containing no rare alleles, a parameter for the effect of use of pravastatin versus the use of placebo, and parameters for the interaction effects between SNP genotypes and pravastatin use. The test of the overall model is a chi-square test with two degrees of freedom for analyses containing all three genotypes, and one degree of freedom for analyses containing two genotypes.
Effect sizes were estimated through odds ratios (pravastatin group versus placebo) for carriers of each genotype (groups of 0, 1, and 2 minor allele carriers). The effect was considered to be significant if p-value for testing whether any of the interactions between SNP genotypes and pravastatin use were <0.05. […] Odds ratios less than one indicate that the specific SNP allele has a protective effect and odds ratios greater than one indicate that the specific SNP allele has an adverse effect.

[1] = CCL4 hCV12120554, All Patients, 0 Rare Alleles, Prava arm
[2] = CCL4 hCV12120554, All Patients, 1 Rare Allele, Prava arm

For `CC[C@H](C)C(=O)O[C@H]1C[C@H](O)C=C2C=C[C@H](C)[C@H](CC[C@@H](O)C[C@@H](O)CC(=O)O)[C@H]21` [pravastatin], the “Odds ratio pravastatin vs placebo” value (APOE hCV905013, All Patients, Nonfatal MI (Probable/Definite), 1 rare allele) was 0.91, the “Odds ratio pravastatin vs placebo” value (APOE hCV905013, All Patients, Nonfatal MI (Probable/Definite), 2 rare alleles) was 0.49 and the “Definite Nonfatal MI, n/total (%)” value (0 Rare Alleles, Prava arm) was “(6.3%)”. For the same compound, the “Fatal/Nonfatal MI (def & prob), n/total (%)” value (“Fatal/Nonfatal MI … (%)” for short) (0 Rare Alleles, Prava arm) was “(8.7%)”, the “MI (Fatal/Nonfatal), n/total (%)” value (0 Rare Alleles, Prava arm) was “(9.1%)” and the “Nonfatal MI (def & prob), n/total (%)” value (0 Rare Alleles, Prava arm) was “(8.1%)”. The “Definite Nonfatal MI, n/total (%)” value (1 Rare Allele, Prava arm) was “(7.9%)”, the “Fatal/Nonfatal MI … (%)” value (1 Rare Allele, Prava arm) was “(11.4%)” and the “MI (Fatal/Nonfatal), n/total (%)” value (1 Rare Allele, Prava arm) was “(11.4%)”. The “Nonfatal MI (def & prob), n/total (%)” value (1 Rare Allele, Prava arm) was “(10.2%)”, the “Definite Nonfatal MI, n/total (%)” value (2 Rare Alleles, Prava arm) was “(3.9%)” and the “Fatal/Nonfatal MI … (%)” value (2 Rare Alleles, Prava arm) was “(6.9%)”. For the same compound, the “MI (Fatal/Nonfatal), n/total (%)” value (2 Rare Alleles, Prava arm) was “(6.9%)”, the “Nonfatal MI (def & prob), n/total (%)” value (2 Rare Alleles, Prava arm) was “(6.9%)” and the “Odds ratio pravastatin vs placebo” value (BCL2A1 hCV7509650, All Patients, Definite Nonfatal MI, 0 rare alleles) was 0.55. For the same compound, the “Odds ratio pravastatin vs placebo” value (BCL2A1 hCV7509650, All Patients, Definite Nonfatal MI, 1 rare allele) was 1.09, the “Odds ratio pravastatin vs placebo” value (BCL2A1 hCV7509650, All Patients, Definite Nonfatal MI, 2 rare alleles) was 0.35 and the “Odds ratio pravastatin vs placebo” value (BCL2A1 hCV7509650, All Patients, Fatal/Nonfatal MI (def & prob), 0 rare alleles) was 0.51. The “Odds ratio pravastatin vs placebo” value (BCL2A1 hCV7509650, All Patients, Fatal/Nonfatal MI (def & prob), 1 rare allele) was 1.00, the “Odds ratio pravastatin vs placebo” value (BCL2A1 hCV7509650, All Patients, Fatal/Nonfatal MI (def & prob), 2 rare alleles) was 0.46 and the “Odds ratio pravastatin vs placebo” value (BCL2A1 hCV7509650, All Patients, MI (Fatal/Nonfatal), 0 rare alleles) was 0.53. The “Odds ratio pravastatin vs placebo” value (BCL2A1 hCV7509650, All Patients, MI (Fatal/Nonfatal), 1 rare allele) was 0.99, the “Odds ratio pravastatin vs placebo” value (BCL2A1 hCV7509650, All Patients, MI (Fatal/Nonfatal), 2 rare alleles) was 0.46 and the “Odds ratio pravastatin vs placebo” value (BCL2A1 hCV7509650, All Patients, Nonfatal MI (def & prob), 0 rare alleles) was 0.52. For the same compound, the “Odds ratio pravastatin vs placebo” value (BCL2A1 hCV7509650, All Patients, Nonfatal MI (def & prob), 1 rare allele) was 1.09, the “Odds ratio pravastatin vs placebo” value (BCL2A1 hCV7509650, All Patients, Nonfatal MI (def & prob), 2 rare alleles) was 0.56 and the “Cardiovascular Mortality, n/total (%)” value [1] was “(4.0%)”. The “Fatal Atherosclerotic Cardiovascular Disease, n/total (%)” value [1] was “(4.0%)”, the “Fatal Coronary Heart Disease, n/total (%)” value [1] was “(3.5%)” and the “Fatal/Nonfatal Atherosclerotic CV Disease, n/total (%)” value [1] was “(34.4%)”. For the same compound, the “Total Coronary Heart Disease Events, n/total (%)” value [1] was “(30.5%)”, the “Total Mortality, n/total (%)” value [1] was “(6.0%)” and the “Cardiovascular Mortality, n/total (%)” value [2] was “(2.5%)”. The “Fatal Atherosclerotic Cardiovascular Disease, n/total (%)” value [2] was “(2.2%)”, the “Fatal Coronary Heart Disease, n/total (%)” value [2] was “(2.2%)” and the “Fatal/Nonfatal Atherosclerotic CV Disease, n/total (%)” value [2] was “(29.9%)”. For the same compound, the “Total Coronary Heart Disease Events, n/total (%)” value [2] was “(25.1%)”, the “Total Mortality, n/total (%)” value [2] was “(4.0%)” and the “Odds ratio pravastatin vs placebo” value (CCL4 hCV12120554, All Patients, Cardiovascular Mortality, 0 rare alleles) was 1.30. For the same compound, the “Odds ratio pravastatin vs placebo” value (CCL4 hCV12120554, All Patients, Cardiovascular Mortality, 1 rare allele) was 0.31, the “Odds ratio pravastatin vs placebo” value (CCL4 hCV12120554, All Patients, Fatal Atherosclerotic Cardiovascular Disease, 0 rare alleles) was 1.30 and the “Odds ratio pravastatin vs placebo” value (CCL4 hCV12120554, All Patients, Fatal Atherosclerotic Cardiovascular Disease, 1 rare allele) was 0.28. For the same compound, the “Odds ratio pravastatin vs placebo” value (CCL4 hCV12120554, All Patients, Fatal Coronary Heart Disease, 0 rare alleles) was 1.28, the “Odds ratio pravastatin vs placebo” value (CCL4 hCV12120554, All Patients, Fatal Coronary Heart Disease, 1 rare allele) was 0.31 and the “Odds ratio pravastatin vs placebo” value (CCL4 hCV12120554, All Patients, Fatal/Nonfatal Atherosclerotic CV Disease, 0 rare alleles) was 0.86. The “Odds ratio pravastatin vs placebo” value (CCL4 hCV12120554, All Patients, Fatal/Nonfatal Atherosclerotic CV Disease, 1 rare allele) was 0.55, the “Odds ratio pravastatin vs placebo” value (CCL4 hCV12120554, All Patients, Total Coronary Heart Disease Events, 0 rare alleles) was 0.87 and the “Odds ratio pravastatin vs placebo” value (CCL4 hCV12120554, All Patients, Total Coronary Heart Disease Events, 1 rare allele) was 0.55. For the same compound, the “Odds ratio pravastatin vs placebo” value (CCL4 hCV12120554, All Patients, Total Mortality, 0 rare alleles) was 1.17, the “Odds ratio pravastatin vs placebo” value (CCL4 hCV12120554, All Patients, Total Mortality, 1 rare allele) was 0.40 and the “Total Coronary Heart Disease Events, n/total (%)” value (CCL11 hCV7449808, All Patients, 0 Rare Alleles, Prava, n/total 310/1025) was “(30.2%)”. The “Fatal/Non-fatal Atherosclerotic CV Disease, n/total (%)” value (CCL11 hCV7449808, All Patients, 0 Rare Alleles, Prava, n/total 359/1025) was “(35.0%)”, the “Hosp. for Cardiovascular Disease, n/total (%)” value (CCL11 hCV7449808, All Patients, 0 Rare Alleles, Prava, n/total 423/1025) was “(41.3%)” and the “Total Cardiovascular Disease Events, n/total (%)” value (CCL11 hCV7449808, All Patients, 0 Rare Alleles, Prava, n/total 436/1025) was “(42.5%)”. For the same compound, the “Total Coronary Heart Disease Events, n/total (%)” value (CCL11 hCV7449808, All Patients, 1 Rare Allele, Prava, n/total 127/448) was “(28.3%)”, the “Fatal/Non-fatal Atherosclerotic CV Disease, n/total (%)” value (CCL11 hCV7449808, All Patients, 1 Rare Allele, Prava, n/total 139/448) was “(31.0%)” and the “Hosp. for Cardiovascular Disease, n/total (%)” value (CCL11 hCV7449808, All Patients, 1 Rare Allele, Prava, n/total 176/448) was “(39.3%)”. The “Total Cardiovascular Disease Events, n/total (%)” value (CCL11 hCV7449808, All Patients, 1 Rare Allele, Prava, n/total 181/448) was “(40.4%)”.
